Data as given in article PMC8621276, “Artemisinin Binds and Inhibits the Activity of Plasmodium falciparum Ddi1, a Retroviral Aspartyl Protease” (Pathogens, 2021).

Tests used:
Format in all cases: biochemical
PfDdi1 [1] = target: T1, PfDdi1 (Plasmodium falciparum, UniProt Q8IM03); experiment: inhibition of FRET peptide, AMC peptide and K48 polyubiquitin cleavage; conditions: 10 min preincubation, sodium acetate pH 5.0, 37 °C, 2.0 μM enzyme
T1 construct: gene PF3D7_1409300; full length (382 aa), His-tagged (pET-28b NcoI/XhoI), E. coli Rosetta (DE3), Ni-NTA; ~44 kDa plus processed ~34 kDa fragment
T1 sequence (Q8IM03 1-382): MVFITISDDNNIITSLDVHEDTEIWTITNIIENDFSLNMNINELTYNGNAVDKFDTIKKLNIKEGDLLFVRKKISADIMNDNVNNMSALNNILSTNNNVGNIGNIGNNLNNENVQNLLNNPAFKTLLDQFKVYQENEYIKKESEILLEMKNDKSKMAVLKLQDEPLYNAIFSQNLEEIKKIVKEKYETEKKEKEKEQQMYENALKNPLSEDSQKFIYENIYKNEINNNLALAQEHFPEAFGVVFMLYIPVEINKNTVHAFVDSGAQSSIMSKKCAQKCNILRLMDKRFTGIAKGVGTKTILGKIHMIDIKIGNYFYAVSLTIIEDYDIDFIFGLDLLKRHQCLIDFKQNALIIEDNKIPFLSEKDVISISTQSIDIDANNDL

PfDdi1 [2] = target: T1, PfDdi1; experiment: inhibition of fluorogenic peptide cleavage
PfDdi1 [3] = target: T1, PfDdi1; experiment: inhibition of FRET peptide cleavage

C[C@@H]1CC[C@H]2[C@@H](C)C(O)O[C@@H]3O[C@@]4(C)CC[C@@H]1[C@]32OO4 (stereo partly drawn) [DHA, Dihydroartemisinin]
% inhibition at 1 μM (PfDdi1 [1]): artemisinin and its derivative, DHA, significantly inhibited the ability of PfDdi1 to degrade the polyubiquitinated

Cc1cccc(C)c1OCC(=O)N[C@@H](Cc1ccccc1)[C@@H](O)C[C@H](Cc1ccccc1)NC(=O)[C@H](C(C)C)N1CCCNC1=O [LPV, Lopinavir]
inhibition at 50 µM (PfDdi1 [2]): ~23.5%

C[C@@H]1CC[C@H]2[C@@H](C)C(=O)O[C@@H]3O[C@@]4(C)CC[C@@H]1[C@]32OO4 [ART, artemisinin]
inhibition at 1 µM (PfDdi1 [3]): 71.4%
